Laboratory results: US20240206484A1, “METHOD OF DEVELOPMENT OF SELECTIVE PROBIOTIC GROWTH PROMOTORS AND SELECTIVE PATHOGEN GROWTH INHIBITORS FROM KIMCHI FERMENTATION” (Hannip Inc., priority 2022, published 2024)

Key:
L. plantarum = assay: Impact of lactic acid on the effect of BKE-X1 or BKE-X2 on growth, colonies counted; format: cell-based, Lactobacillus plantarum; conditions: lactic acid to reduce pH to 3 or less; 48 hours at 30° C.; vs control
Method: (§1) To MRS culture medium (1 mL) in a culture tube (15 mL), saline (9 mL), BKE-X1 or BKE-X2 (500 mg), and kimchi bacteria culture solution (select one of L. mesenteroides and L. plantarum) (0.5 mL) were added. The mixture was vortex stirred and cultured for 48 hours at 30° C. To MRS culture medium (1 mL) in another culture tube (15 mL), saline (9 mL), BKE-X1 or BKE-X2 (500 mg), kimchi bacteria culture solution (select one of L. mesenteroides and L. plantarum) (0.5 mL), and lactic acid (to reduce pH to 3 or less) were added. The mixture was vortex stirred and cultured for 48 hours at 30° C. To MRS culture medium (1 mL) in yet another culture tube (15 mL), saline (9 mL), kimchi bacteria culture solution (select one of L. mesenteroides and L. plantarum) (0.5 mL), and lactic acid (to reduce pH to 3 or less) were added. The mixture was vortex stirred and cultured for 48 hours at 30° C. As the control, to MRS culture medium (1 mL) in yet another culture tube (15 mL), saline (9 mL) and kimchi bacteria culture solution (select one of L. mesenteroides and L. plantarum) (0.5 mL) were added. The mixture was vortex stirred and cultured for 48 hours at 30° C. An aliquot (0.5 mL) was collected from each culture medium and serially diluted to 16,000× using saline solution. […] The colonies were counted and photographed, then compared side by side.

L. mesenteroides = assay: as above; format: cell-based, Leuconostoc mesenteroides; conditions: lactic acid to reduce pH to 3 or less; 48 hours at 30° C.; vs control
Method: as §1

Structure (SMILES): CC(O)C(=O)O (centres unmarked) [lactic acid]
- growth of L. plantarum, lactic acid alone (L. plantarum): negligibly promoting
- growth of L. mesenteroides, lactic acid alone (L. mesenteroides): negligibly inhibit
